“Also recorded” adds a separate entry of the source.

Data set [1] deals with Meerschweinchen, die ein Antigen induziertes Asthma besitzen. Put plainly: antigen (ovalbumin)-induced asthma in conscious, spontaneously breathing guinea pigs; lung function (sGaw) by body plethysmograph. The data set is classed as in vivo, Hartley Meerschweinchen. As to conditions: for Bereiche der Unterdrückung der unmittelbaren asthmatischen Reaktionen: comparison of Ebselen group (5 mg/kg i.p.) with Dexamethason group (1 mg/kg i.p., 4 days). Here is the method:
Die Wirksamkeiten von Ebselen wurden unter Verwendung von Meerschweinchen, die ein Antigen induziertes Asthma besitzen, durch Überprüfung der Lungenfunktionen unter Bewußtsein und spontaner Atmung getestet.
Jedes der weiblichen Hartley Meerschweinchen (SLC) (4 Wochen alt, Körpergewicht etwa 250 bis 300 g) wurden vorbehandelt mit Cyclophosmid (2 mg/kg). Nach zwei Tagen wurden intraperitoneal Ovalbumin (OA, 1 mg) und Aluminiumgel (1 g) injiziert. Drei Wochen später wurden wiederum OA (0,1 mg) und Aluminiumgel (1 g) intraperitoneal injiziert. Die so behandelten Meerschweinchen wurden als sensibilisierte Tiere benutzt. Zu diesem Testzeitpunkt waren die Meerschweinchen elf Wochen alt und hatten ein Körpergewicht von 450 bis 580 g.
Körper-Pressmograph, Drucktyp • Pulmotacograph (TP-601G, Nippon Kodensha) • Differentialmeßwandler (T-601, Nippon Kodensha) • Gasflußwiderstandsrohr (Lilly type, Nippon Kodensha) • Oszilloskop (DS-9121, Iwasaki Tsushinki) • Computer (Macintosh Centris 660 AV, Apple) • Software (zur Analyse der Atmung basierend auf LabView für Macintosh 3.01) • Zerstäuber (NE-U10, Tateishi Denki)
Dexamethason (1 mg/kg) wurde in 100 % DMSO (1 ml) gelöst. Diese Lösung wurde während vier aufeinander folgende Tage intraperitoneal injiziert. Die letzte intraperitoneale Injektion wurde 24 Stunden vor der Induzierung der Antigene durchgeführt.
Gruppe der mit Ebselen vorbehandelten Meerschweinchen Ebselen (5 mg/kg) wurde in 100 % DMSO (1 ml) gelöst. Diese Lösung wurde intraperitoneal 30 Minuten vor der Induzierung der Antigene injiziert.
100 % DMSO (1 ml) wurde intraperitoneal 30 Minuten vor der Induzierung der Antigene injiziert.
OA (40 mg) wurde in einer physiologischen Salzlösung (4 mg/ml) gelöst. Diese Lösung wurde 2 Minuten lang unter Verwendung eines Ultraschallzerstäubers inhaliert.
In Übereinstimmung mit dem Verfahren von Agrawal (Agrawal, K. P.; Specific Airway Conductance in Guinea Pigs: "Normal Values and Histamine Induced Fall", Respiratory Physiology 43:23, 1981) wurde jedes Meerschweinchen auf einem Körper-Pressmograph, Drucktyp, fixiert und die prozentuale Variation des spezifischen Luftweg-Leitwertes (sGaw) wurde gemessen. Der Luftfluß durch die Nase und die Änderung des Innendruckes der Box wurden aufgezeichnet. Die entsprechenden Wellenformen' wurden digital bei 1.024 Hz gesammelt und die Punkte vom Ende des Ausatmens bis zum Beginn des Einatmens wurden als rückläufige Linie aufgezeichnet. Unter Verwendung der Neigung (tan) der rückläufigen Linie wurde der sGaw erhalten. Der sGaw-Wert wurde vor der Induzierung der Antigene gemessen. Nachdem eine physiologische Salzlösung für zwei Minuten inhaliert wurde, wurde der sGaw nochmals gemessen, um sicherzustellen, daß sich keine Daten geändert hatten. […]

Data set [2] in a line: acute toxicity test (LD50) in rats. Conditions: rat, in vivo, Ratte. From the text:
(§1) Darüber hinaus konnte gefunden werden, daß Ebselen sehr sicher ist, wie dies durch die nachfolgenden und in der Tabelle 1 wiedergegebenen LD50-Werte bewiesen wird, wobei diese Werte das Ergebnis eines Toxizitätstests unter Verwendung von Mäusen und Ratten, denen diese Verbindungen oral oder intraperitoneal verabreicht wurden, darstellen. Selbst dann, wenn diese Verbindungen in hohen Dosen verabreicht werden, zeigen sie keine Nebeneffekte, die ernsthafte Probleme verursachen. Tabelle 1

The nature of data set [3]: acute toxicity test (LD50) in mice. As to conditions: mouse, in vivo, Maus.
From the text: as §1

The subject of a further data set is Lipoxygenase. Conditions: Peter Kuhl et al, Prostaglandins, 31 (1986), 1029-1048; cited from earlier work.

With `C[C@@H]1C[C@H]2[C@@H]3CCC4=CC(=O)C=C[C@]4(C)[C@@]3(F)[C@@H](O)C[C@]2(C)[C@@]1(O)C(=O)CO` [Dexamethason, reference compound], the “Bereiche der Unterdrückung der unmittelbaren asthmatischen Reaktionen” value in data set [1] is reported as “überwiegend gleich”.
On to `O=c1c2ccccc2[se]n1-c1ccccc1` [Ebselen, 2-Phenyl-1,2-Benzoisoselenazole-3(2H)-one], for which the 50% lethal dose (LD50) in data set [2] (ip) is 580 mg/kg; in data set [2] (po), over 6810 mg/kg; in data set [3] (ip), 740 mg/kg; in data set [3] (po), over 6810 mg/kg. The “Unterdrückung der unmittelbaren asthmatischen Reaktionen (sGaw)” value in data set [1] (Ebselen 5 mg/kg i.p. 30 min before antigen challenge, compared with control group (DMSO)) is “wirkungsvoller unterdrückt”. Besides, the “Unterdrückung der späten asthmatischen Reaktionen (sGaw)” value in data set [1] (Ebselen 5 mg/kg i.p. 30 min before antigen challenge, compared with control group (late reactions at 180 to 420 min in controls)) was “wirkungsvoller unterdrückt; also recorded: erheblich und vollständig unterdrückt”. Further, the “Bereiche der Unterdrückung der unmittelbaren asthmatischen Reaktionen” value in data set [1] was “überwiegend gleich”. In the data set on Lipoxygenase, the “Lipoxygenase inhibierende Wirkung” value is recorded as “deutliche Lipoxygenase inhibierende Wirkung”.
